Data published in patent US7572803B2 (The Christus Stehlin Foundation for Cancer Research, priority 2007, dated 2009).
Where “and” joins values, the source holds several entries; their conditions need not be identical. Identical values can stand only once.

Experiments:
[1] = Pharmacokinetics for CPT in human plasma (lactone ring intact); assay type: in vitro ADME; conditions: read-out: half-life time of the drug with the lactone ring intact
[2] = Determination of PK parameters after oral administration to nude mice; assay type: in vivo
Protocol: The determination of PK parameters of crystalline CZ48 hydrate. Pharmacokinetic profile of crystalline camptothecin-20-O-propionate hydrate with a single dose of 2000 mg/kg was recorded following an oral administration to nude mice. […] Camptothecin-20-O-acetate, an analogue of CZ48 which was not a crystalline hydrate, was used as an internal standard for determining all PK parameters of the CZ48 hydrate. A 100 μL plasma from the mouse treated with crystalline CZ48 hydrate at dose of 2000 mg/kg was transferred into a 2-mL test-tube, and then 100 μL of internal-standard working solution (400 ng/mL) was also added to the tube. To the mixture, were also added 200 μL of 1% acetic acid solution and 1 mL ethyl ether. After vortex-mixing for 10 s, the mixture was incubated at room temperature on a shaker for 10 min, and then centrifuged at 10,000×g for 15 min. The upper layer obtained from the centrifugation was transferred into a clean tube and evaporated to dryness using an evaporator at 40° C. under a stream of nitrogen. The residue was reconstituted in 200 μL of water/acetonitrite (50/50, v/v) solvent system, and a 20-μL portion of the aliquot was injected into HPLC system for analysis. For the study, A 100 μL blank plasma from untreated mouse was also processed in the same manner as the treated.

[3] = system: human Melanoma lines; assay: Anti-tumor activity, melanoma xenografts in nude mice; assay type: in vivo; conditions: oral
Description: (§1) In vivo anti-tumor activity determination. The human tumors used in the experiments discussed herein included 1 bladder line, 3 breast lines, 4 colon lines, 1 DSRCT line, 1 kidney line, 2 melanoma lines, 2 lung lines, 7 pancreatic lines, and 1 prostate line. The hydrated crystalline CZ48 drug was finely suspended in cottonseed oil and stored in a refrigerator for using. The suspension was orally administered to the mice bearing human tumors once a day continuously for 5 days on and 2 days off or once a day for seven days for the whole treatment period. The treatment period for the various tumor lines varied, ranging from two weeks to one year. […] With the continuous schedule (daily treatment), one of those two negatively responded pancreatic tumor lines under the 5/2 schedule achieved the positive response.
(§2) In vivo anti-tumor activity determination. All the animal experiments were performed on nude Swiss mice of the NIH, high-fertility strain. They were bred and raised in laboratory under strict pathogen-free conditions. For anti-tumor activity determination, a tumor xenograft growing in a nude mouse, approximately 1 cm^3 in size, was surgically removed under sterile conditions, finely minced with iridectomy scissors, and suspended in cell culture medium at the ratio 1:10, v/v. […] Tumors growing in animals were checked and measured with a caliper once a week. […]

[4] = system: FOSS melanoma line; assay: Effective dose, FOSS xenograft in nude mice; assay type: in vivo, human; conditions: oral, dose giving positive response
Protocol: (§3) In vivo anti-tumor activity determination. All the animal experiments were performed on nude Swiss mice of the NIH, high-fertility strain. They were bred and raised in laboratory under strict pathogen-free conditions. For anti-tumor activity determination, a tumor xenograft growing in a nude mouse, approximately 1 cm^3 in size, was surgically removed under sterile conditions, finely minced with iridectomy scissors, and suspended in cell culture medium at the ratio 1:10, v/v. One half of 1 mL of this suspension, containing about 50 mg of wet-weight tumor mince was subcutaneously inoculated on the upper half of the dorsal thorax of the mouse. Groups of four or five animals were used. Hydrated crystalline CZ48 was finely suspended in cottonseed oil and then injected into the stomach cavity of the mouse through the anterior abdominal wall using a 26 gauge needle. The weekly schedule used for oral administration of hydrated crystalline CZ48 was once a day for 7 days, or five days on and two days off. This schedule was employed throughout all the animal experiments. Treatment was initiated when the tumor had reached a volume of about 200 mm^3, i.e., well-vascularized, measurable, and growing exponentially. Tumors growing in animals were checked and measured with a caliper once a week. The effective doses were established when a positive response in mouse was reached.

[5] = In situ single-pass intestinal perfusion, percentage absorption in mouse; assay type: in vivo, nude mice
Protocol: The determination of percentage absorption of crystalline CZ48 hydrate in mouse. Absorption studies were also performed with crystalline camptothecin-20-O-propionate hydrate by using a mouse perfusion procedure on 4 nude mice. Prior to the in situ single-pass perfusion procedure, HBSS buffer (pH 7.4) consisting of 9.801 g/L HBSS powders, 0.372 g/L NaHCO3, 3.502 g/L glucose, 5.963 g/L HEPES, and 1.164 g/L NaCl was prepared and stored in a refrigerator. The perfusate for the procedure was prepared by mixing a certain amount of the drug, crystalline CZ48 hydrate, with an amount of HBSS buffer. The mixture was heated up to 37° C. (body temperature) right before use. A group of 4 mice with weights ranging from 25 to 30 grams and ages ranging from 9 to 11 months were anesthetized and placed onto a heating plate. The plate was maintained a constant temperature of 37° C. After a perfusion system was set ready with a mouse, two segments of the intestine (small intestine, IS, and colon) were simultaneously perfused with the freshly prepared perfusate. The pump was maintained at a constant flow-rate of 0.191 mL/min for the whole perfusion. Two perfusate samples were collected from each outlet (SI tract or colon) every 30 min. The concentrations of the drug in perfusate from the outlets were determined by HPLC analysis, and the corresponding percentage absorptions were calculated relative to the starting amount of the drug and shown in Table 5.

[6] = system: human Pancreas tumor lines; assay: Anti-tumor activity, pancreatic tumor xenografts in nude mice; assay type: in vivo; conditions: oral
Description: as §1
as §3, with “Treatment was initiated when the tumor had reached a volume of about 200 mm^3, i.e., well-vascularized, measurable, and growing exponentially.” left out, “The effective doses were established when a positive response in mouse was reached.” left out

[7] = system: PANC1-pancreas; assay: Effective dose, PANC1 xenograft in nude mice; assay type: in vivo, human; conditions: oral, dose giving positive response
Protocol: as §3

[8] = system: BRO melanoma line; assay: Effective dose, BRO xenograft in nude mice; assay type: in vivo, human; conditions: oral, dose giving positive response
Protocol: as §3

[9] = system: human Lung tumor lines; assay: Anti-tumor activity, lung tumor xenografts in nude mice; assay type: in vivo; conditions: oral
Description: as §1, §2

[10] = system: MUR breast tumor line; assay: Effective dose, MUR xenograft in nude mice; assay type: in vivo, human; conditions: oral, dose giving positive response
Protocol: as §3

[11] = system: LIE pancreas tumor line; assay: Effective dose, LIE xenograft in nude mice; assay type: in vivo, human; conditions: oral, dose giving positive response
Protocol: as §3

[12] = system: WAR breast tumor line; assay: Effective dose, WAR xenograft in nude mice; assay type: in vivo, human; conditions: oral, dose giving positive response
Protocol: as §3

[13] = system: human Breast tumor lines; assay: Anti-tumor activity, breast tumor xenografts in nude mice; assay type: in vivo; conditions: oral
Description: as §1, §2

[14] = system: SQU colon tumor line; assay: Effective dose, SQU xenograft in nude mice; assay type: in vivo, human; conditions: oral, dose giving positive response
Protocol: as §3

[15] = system: SPA lung tumor line; assay: Effective dose, SPA xenograft in nude mice; assay type: in vivo, human; conditions: oral, dose giving positive response
Protocol: as §3

[16] = system: human Colon tumor lines; assay: Anti-tumor activity, colon tumor xenografts in nude mice; assay type: in vivo; conditions: oral
Description: as §1, §2

[17] = system: SW48 colon tumor line; assay: Effective dose, SW48 xenograft in nude mice; assay type: in vivo, human; conditions: oral, dose giving positive response
Protocol: as §3

[18] = system: human Bladder tumor line; assay: Anti-tumor activity, bladder tumor xenografts in nude mice; assay type: in vivo; conditions: oral
Description: as §1, §2

[19] = system: human xenografts; assay: In vivo anti-tumor activity against human tumor xenografts in nude mice (all lines); conditions: oral, cottonseed oil suspension, 5 days-on and 2 days-off schedule
Description: as §1, §2

[20] = system: HS766T pancreas tumor line; assay: Effective dose, HS766T xenograft in nude mice; assay type: in vivo, human; conditions: oral, dose giving positive response
Protocol: as §3

[21] = system: SU86.86-pancreas; assay: Effective dose, SU86.86 xenograft in nude mice; assay type: in vivo, human; conditions: oral, dose giving positive response
Protocol: as §3

[22] = In vivo toxicity determination (body weight) in nude mice; conditions: continuously for 60 days
Protocol: In vivo toxicity determination. Groups of 4 or 5 animals of about the same age and having similar weights were chosen and treated with crystalline CZ48 hydrate orally at doses of 1500 mg/kg and 2000 mg/kg, respectively, continuously for 60 days. The 3 groups of mice chosen for the toxicity studies were healthy, of similar age and weights, and non-tumor-bearing. One group was used as control, and the other two groups were treated with the drug at two high-dose levels, 1500 mg/kg and 2000 mg/kg respectively, for about two months. The body weight changes in animals during the treatment were recorded for the treated group versus the untreated group beginning at day 0 and ending at the 60th day.
The body-weight loss was used as a parameter to measure the toxicity of the agent. Usually, body weight loss of 10% or more in mice during treatment is considered a sign of toxicity. Greater body-weight loss signifies greater toxicity.

[23] = system: MiaPaCa2 pancreas tumor line; assay: Effective dose, MiaPaCa2 xenograft in nude mice; assay type: in vivo, human; conditions: oral, dose giving positive response
Protocol: as §3

[24] = system: HT29 colon tumor line; assay: Effective dose, HT29 xenograft in nude mice; assay type: in vivo, human; conditions: oral, dose giving positive response
Protocol: as §3

[25] = system: MYE DSRCT line; assay: Effective dose, MYE xenograft in nude mice; assay type: in vivo, human; conditions: oral, dose giving positive response
Protocol: as §3

[26] = system: PC3P62 prostate tumor line; assay: Effective dose, PC3P62 xenograft in nude mice; assay type: in vivo, human; conditions: oral, dose giving positive response
Protocol: as §3

[27] = system: BOL bladder tumor line; assay: Effective dose, BOL xenograft in nude mice; assay type: in vivo, human; conditions: oral, dose giving positive response
Protocol: as §3

[28] = system: DOY lung tumor line; assay: Effective dose, DOY xenograft in nude mice; assay type: in vivo, human; conditions: oral, dose giving positive response
Protocol: as §3

[29] = system: CLO-breast carcinoma; assay: Effective dose, CLO xenograft in nude mice; assay type: in vivo, human; conditions: oral
Protocol: as §3

[30] = system: ASPC1 pancreas tumor line; assay: Effective dose, ASPC1 xenograft in nude mice; assay type: in vivo, human; conditions: oral, dose giving positive response
Protocol: as §3

[31] = system: CAK-kidney; assay: Effective dose, CAK xenograft in nude mice; assay type: in vivo, human; conditions: oral, dose giving positive response
Protocol: as §3

[32] = system: McC colon tumor line; assay: Effective dose, McC xenograft in nude mice; assay type: in vivo, human; conditions: oral, dose giving positive response
Protocol: as §3

[33] = system: human DSRCT line; assay: Anti-tumor activity, DSRCT xenografts in nude mice; assay type: in vivo; conditions: oral
Description: as §1, §2

[34] = system: human tumor xenografts; conditions: in mice, against human tumor xenografts; cited from earlier work

SMILES: CC[C@@]1(O)C(=O)OCc2c1cc1n(c2=O)Cc2cc3ccccc3nc2-1 [CPT, camptothecin, reference compound]
- half-life [1]: ~30 min
- Ke ([2]; mice, oral hydrated crystalline CZ48 2000 mg/kg, plasma, CPT = major metabolite): 0.40 ± 0.13 h⁻¹

SMILES: CCC(=O)O[C@]1(CC)C(=O)OCc2c1cc1n(c2=O)Cc2cc3ccccc3nc2-1 [hydrated crystalline CZ48, crystalline camptothecin-20-O-propionate hydrate]
- Response Positive (inhibition of growth bigger than 50%), lines responding/tested [3]: 2/2
- Effective dose [4]: 300 mg/kg
- % Crystalline CZ48 Hydrate Absorptions, Colon, Ave ([5]; colon, average of 4 mice): −19.46%
- % Crystalline CZ48 Hydrate Absorptions, Colon ([5]; colon, individual mice No. 1-4, HBSS pH 7.4, 37° C., 0.191 mL/min, listed as Crystalline CZ48 Hydrate, hydrate): 8.04% and −35.17% and −73.24% and 6.82%
- % Crystalline CZ48 Hydrate Absorptions, SI, Ave ([5]; small intestine, average of 4 mice): 22.23%
- % Crystalline CZ48 Hydrate Absorptions, SI ([5]; small intestine, individual mice No. 1-4, HBSS pH 7.4, 37° C., 0.191 mL/min, listed as Crystalline CZ48 Hydrate, hydrate): 11.49% and 16.51% and 9.34% and 45.85%
- Response Negative (inhibition of growth smaller than 50%), lines/tested ([6]; Pancreas, nude mice): 1/7
- Response Positive (inhibition of growth bigger than 50%), lines responding/tested ([6]; Pancreas, nude mice): 6/7
- pancreatic tumor lines that failed to obtain the positive response ([6]; 5 days-on and 2 days-off schedule): 2 lines
- Effective dose [7]: 1000 mg/kg
- Effective dose [8]: 100 mg/kg
- Response Positive (inhibition of growth bigger than 50%), lines responding/tested [9]: 2/2
- Effective dose [10]: 300 mg/kg
- Effective dose [11]: 100 mg/kg
- Effective dose [12]: 200 mg/kg
- Response Positive (inhibition of growth bigger than 50%), lines responding/tested [13]: 3/3
- Effective dose [14]: 30 mg/kg
- Effective dose [15]: 100 mg/kg
- Response Positive (inhibition of growth bigger than 50%), lines responding/tested [16]: 4/4
- Effective dose [17]: 100 mg/kg
- Response Positive (inhibition of growth bigger than 50%), lines responding/tested [18]: 1/1
- tumor lines that achieved positive response (greater than 50% inhibition in tumor-growth inhibition) [19]: 18 lines
- Effective dose [20]: 100 mg/kg
- AUC(0-t) ([2]; nude, mouse, in vivo, po, 2000 mg/kg): 1930 ± 114 ng·h/mL
- Effective dose [21]: 1000 mg/kg
- toxicity in the treated mice ([22]; 1500 mg/kg and 2000 mg/kg orally, non-tumor-bearing mice): no noticeable toxicity
- dose mice could tolerate ([22]; oral, implied from no significant body-weight loss): higher than 2000 mg/kg
- Effective dose [23]: 100 mg/kg
- Effective dose [24]: 50 mg/kg
- Effective dose [25]: 100 mg/kg
- Effective dose [26]: 300 mg/kg
- Effective dose [27]: 200 mg/kg
- Effective dose [28]: 15 mg/kg
- Effective dose ([29]; CLO (Breast), nude mice, dose giving positive response): 4 mg/kg
- tumor growth inhibition ([29]; CLO-breast carcinoma, dose 4 mg/kg): complete inhibition
- Effective dose [30]: 300 mg/kg
- Effective dose [31]: 1000 mg/kg
- Effective dose [32]: 300 mg/kg
- Response Positive (inhibition of growth bigger than 50%), lines responding/tested [33]: 1/1

SMILES: CC[C@@]1(O)C(=O)OCc2c1cc1n(c2=O)Cc2cc3c([N+](=O)[O-])cccc3nc2-1 [9-nitrocamptothecin]
- potency relative to CPT [34]: 2-3 times
